Measurements published in patent publication US20230407243A1, “GENETIC PLATFORM TO INVESTIGATE THE FUNCTIONS OF BACTERIAL DRUG EFFLUX PUMPS” (priority 2022, published 2023).

Assays:
Assay type in all cases: cell-based, Escherichia coli
EKO-35 araC::acrD = assay: MIC susceptibility profiling, efflux platform
Outline: (§1)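 Each compound was serially diluted twofold, in duplicate, and challenged with a 1/2000 dilution of PBS-washed cells (OD600 ~1.0) in MHB II. Plates were shaken at 37 °C for 18 h and OD600 was read at room temperature, with the baseline subtracted.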

EKO-35 araC::acrBD408A = assay: MIC susceptibility profiling, efflux platform
Outline: as §1

EKO-35 araC::emrKY = assay: MIC susceptibility profiling, efflux platform
Outline: as §1

EKO-35 araC::mdtBC = assay: MIC susceptibility profiling, efflux platform
Outline: as §1

EKO-35 araC::mdtEF = assay: MIC susceptibility profiling, efflux platform
Outline: as §1

[1] = tested on: EKO-35 araC::mexCD (MexCD from P. aeruginosa); assay: MIC susceptibility profiling, efflux platform
Outline: as §1

EKO-35 araC::macAB = assay: MIC susceptibility profiling, efflux platform
Outline: as §1

EKO-35 araC::emrAB = assay: MIC susceptibility profiling, efflux platform
Outline: as §1

EKO-35 araC::acrEF = assay: MIC susceptibility profiling, efflux platform
Outline: as §1

EKO-35 araC::acrB = assay: MIC susceptibility profiling, efflux platform
Outline: as §1

ΔtolC-Pore = assay: microbe, parasite or virus in culture; details: technical duplicate
Outline: (§2)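 E. coli strains carrying a genomically integrated constitutive fhuA ΔC/Δ4L pore were grown 18 h in LB at 37 °C, then diluted 1/2000 in MHB II from OD600 ~1.0. Compounds were tested in duplicate, 2-fold serial titration, for 18 h at 37 °C with shaking. MIC came from OD600 with the pre-incubation background subtracted.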

wild-type (WT) K-12-Pore = assay: microbe, parasite or virus in culture; details: technical duplicate
Outline: as §2

EKO-35 araC::acrB Pore = assay: MIC susceptibility profiling, porinated efflux platform
Outline: as §2

EKO-35 araC::mdtBC Pore = assay: as above
Outline: as §2

EKO-35 araC::mdtEF Pore = assay: as above
Outline: as §2

EKO-35-Pore = assay: MIC susceptibility profiling, porinated strain
Outline: as §2

E. coli ΔtolC = assay: microbe, parasite or virus in culture; details: technical duplicate
Outline: as §1

[2] = tested on: wild-type E. coli K-12 str. BW25113; assay: microbe, parasite or virus in culture; details: technical duplicate
Outline: as §1

E. coli EKO-35 = assay: microbe, parasite or virus in culture
Outline: as §1

[3] = Table 13A, non-porinated, technical duplicate
[4] = Table 13B, non-porinated, technical duplicate
[5] = Table 14A, porinated, technical duplicate

SMILES: COC(=O)c1sc(N2CCCC2)c(C#N)c1-c1cccs1 [compound 10]
- Fold change of MICs (EKO-35 araC::acrD; EKO-35 araC::acrD compared to EKO-35): 1 fold
- Minimum Inhibitory Concentration, EKO-35 araC::acrD (EKO-35 araC::acrD; [3]): 160 µg/mL
- Fold change of MICs (EKO-35 araC::acrBD408A; EKO-35 araC::acrBD408A compared to EKO-35): 1 fold
- Minimum Inhibitory Concentration, EKO-35 araC::acrBD408A (EKO-35 araC::acrBD408A; [4]): 160 µg/mL
- Fold change of MICs (EKO-35 araC::emrKY; EKO-35 araC::emrKY compared to EKO-35): 1 fold
- Minimum Inhibitory Concentration, EKO-35 araC::emrKY (EKO-35 araC::emrKY; [4]): 160 µg/mL
- Fold change of MICs (EKO-35 araC::mdtBC; EKO-35 araC::mdtBC compared to EKO-35): 1 fold
- Minimum Inhibitory Concentration, EKO-35 araC::mdtBC (EKO-35 araC::mdtBC; [4]): 160 µg/mL
- Fold change of MICs (EKO-35 araC::mdtEF; EKO-35 araC::mdtEF compared to EKO-35): 1 fold
- Minimum Inhibitory Concentration, EKO-35 araC::mdtEF (EKO-35 araC::mdtEF; [3]): 160 µg/mL
- Fold change of MICs ([1]; EKO-35 araC::mexCD compared to EKO-35): 1 fold
- Minimum Inhibitory Concentration, EKO-35 araC::mexCD [1, 4]: 160 µg/mL
- Fold change of MICs (EKO-35 araC::macAB; EKO-35 araC::macAB compared to EKO-35): 1 fold
- Minimum Inhibitory Concentration, EKO-35 araC::macAB (EKO-35 araC::macAB; [4]): 160 µg/mL
- Fold change of MICs (EKO-35 araC::emrAB; EKO-35 araC::emrAB compared to EKO-35): 1 fold
- Minimum Inhibitory Concentration, EKO-35 araC::emrAB (EKO-35 araC::emrAB; [4]): 160 µg/mL
- Fold change of MICs (EKO-35 araC::acrEF; EKO-35 araC::acrEF compared to EKO-35): 1 fold
- Minimum Inhibitory Concentration, EKO-35 araC::acrEF (EKO-35 araC::acrEF; [3]): 160 µg/mL
- Fold change of MICs (EKO-35 araC::acrB; EKO-35 araC::acrB compared to EKO-35): 1 fold
- Minimum Inhibitory Concentration, EKO-35 araC::acrB (EKO-35 araC::acrB; [3]): 160 µg/mL
- Minimum inhibitory concentration (MIC), Pore ΔtolC (ΔtolC-Pore; Table 10, with pore): 5 µg/mL
- Minimum inhibitory concentration, ΔtolC-Pore (ΔtolC-Pore; Table 14A, porinated): 5 µg/mL
- Minimum inhibitory concentration (MIC), Pore K-12 (wild-type (WT) K-12-Pore; Table 10, with pore): 160 µg/mL
- Minimum inhibitory concentration, K-12 (WT)-Pore (wild-type (WT) K-12-Pore; Table 14A, porinated): 160 µg/mL
- efflux pump-mediated resistance vs EKO-35-Pore (EKO-35 araC::acrB Pore; AcrB with the pore): increased resistance
- Fold changes of MICs (EKO-35 araC::acrB Pore; EKO-35 araC::acr-B Pore compared to EKO-35-Pore): 16 fold
- Minimum inhibitory concentration, EKO-35 araC::acrB Pore (EKO-35 araC::acrB Pore; [5]): 160 µg/mL
- Fold changes of MICs (EKO-35 araC::mdtBC Pore; EKO-35 araC::mdtBC Pore compared to EKO-35-Pore): 1 fold
- Minimum inhibitory concentration (EKO-35 araC::mdtBC Pore; EKO-35 araC::mdtBC Pore, technical duplicate): 10 µg/mL
- Fold changes of MICs (EKO-35 araC::mdtEF Pore; EKO-35 araC::mdtEF Pore compared to EKO-35-Pore): 16 fold
- efflux pump-mediated resistance vs EKO-35-Pore (EKO-35 araC::mdtEF Pore; MdtEF with the pore): increased resistance
- Minimum inhibitory concentration, EKO-35 araC::mdtEF Pore (EKO-35 araC::mdtEF Pore; [5]): 160 µg/mL
- Fold changes of MICs (EKO-35-Pore; EKO-35-Pore compared to EKO-35-Pore (reference)): 1 fold
- Minimum inhibitory concentration (MIC), Pore EKO-35 (EKO-35-Pore; Table 10, with pore, technical duplicate): 10 µg/mL
- Minimum inhibitory concentration, EKO-35-Pore (EKO-35-Pore; [5]): 10 µg/mL
- Minimum inhibitory concentration (MIC), ΔtolC (E. coli ΔtolC; Table 10, without pore): 10 µg/mL
- Minimum Inhibitory Concentration, ΔtolC (E. coli ΔtolC; Table 13A, non-porinated): 10 µg/mL
- Minimum inhibitory concentration (MIC), K-12 ([2]; Table 10, without pore): 160 µg/mL
- Minimum Inhibitory Concentration, K-12 ([2]; Table 13A, non-porinated): 160 µg/mL
- Fold change of MICs (E. coli EKO-35; EKO-35 compared to EKO-35 (reference)): 1 fold
- Minimum inhibitory concentration (MIC), EKO-35 (E. coli EKO-35; Table 10, without pore, technical duplicate): 160 µg/mL
- Minimum Inhibitory Concentration, EKO-35 (E. coli EKO-35; [3]): 160 µg/mL
